Assay results published in US9415051B1, “Use of pemirolast” (priority 2015, dated 2016).
Where two headings read alike, the source gives them in different places.

Columns and labels:
[1] = Single and multiple-dose open safety and tolerability study, pharmacokinetics of pemirolast potassium tablets in humans; assay type: in vivo, human; conditions: for Cmax: human, plasma; for Cmax / Cmax, mean: multiple dose, healthy male subjects, N = 6
Protocol: This study comprised 18 healthy male subjects, 18-45 years of age, and was a single and multiple-dose, open study assessing the safety and tolerability of pemirolast potassium tablets (10 mg, Ulgixal™ tablets) with the doses 10, 30 and 50 mg (containing 8.5, 25.5 and 42.5 mg pemirolast free acid, respectively) b.i.d. (6 subjects in each dose group). The subjects received a single dose on the first day, then b.i.d. for three days and a single dose on the fifth day. The study was performed at the Berzelius Clinical Research Center AB in Linköping, Sweden. All laboratory pharmacokinetic analyses were performed by Quintiles AB, Uppsala, Sweden. Pharmacokinetic calculations were performed by Pharm Assist Sweden AB, Uppsala, Sweden. Mean Cmax data after multiple dosing are shown in and Table 1, and mean plasma concentrations over time on Day 5 are shown in FIG. 1.

[2] = Toxicokinetics of pemirolast in the dog, 7-day oral repeated dose; design: species or system dog (Beagles); conditions: Beagle, in vivo, 75 mg/kg daily oral, 7th day
Text: There were no major differences in kinetics between males and females.

[3] = dog, in vivo
Protocol: The study, including all analyses and calculations, were performed by WIL Research, France, in compliance with Good Laboratory Practices (GLP).

hERG potassium channel = hERG potassium channel (Homo sapiens, UniProt Q12809)
hERG potassium channel, sequence (Q12809 whole entry): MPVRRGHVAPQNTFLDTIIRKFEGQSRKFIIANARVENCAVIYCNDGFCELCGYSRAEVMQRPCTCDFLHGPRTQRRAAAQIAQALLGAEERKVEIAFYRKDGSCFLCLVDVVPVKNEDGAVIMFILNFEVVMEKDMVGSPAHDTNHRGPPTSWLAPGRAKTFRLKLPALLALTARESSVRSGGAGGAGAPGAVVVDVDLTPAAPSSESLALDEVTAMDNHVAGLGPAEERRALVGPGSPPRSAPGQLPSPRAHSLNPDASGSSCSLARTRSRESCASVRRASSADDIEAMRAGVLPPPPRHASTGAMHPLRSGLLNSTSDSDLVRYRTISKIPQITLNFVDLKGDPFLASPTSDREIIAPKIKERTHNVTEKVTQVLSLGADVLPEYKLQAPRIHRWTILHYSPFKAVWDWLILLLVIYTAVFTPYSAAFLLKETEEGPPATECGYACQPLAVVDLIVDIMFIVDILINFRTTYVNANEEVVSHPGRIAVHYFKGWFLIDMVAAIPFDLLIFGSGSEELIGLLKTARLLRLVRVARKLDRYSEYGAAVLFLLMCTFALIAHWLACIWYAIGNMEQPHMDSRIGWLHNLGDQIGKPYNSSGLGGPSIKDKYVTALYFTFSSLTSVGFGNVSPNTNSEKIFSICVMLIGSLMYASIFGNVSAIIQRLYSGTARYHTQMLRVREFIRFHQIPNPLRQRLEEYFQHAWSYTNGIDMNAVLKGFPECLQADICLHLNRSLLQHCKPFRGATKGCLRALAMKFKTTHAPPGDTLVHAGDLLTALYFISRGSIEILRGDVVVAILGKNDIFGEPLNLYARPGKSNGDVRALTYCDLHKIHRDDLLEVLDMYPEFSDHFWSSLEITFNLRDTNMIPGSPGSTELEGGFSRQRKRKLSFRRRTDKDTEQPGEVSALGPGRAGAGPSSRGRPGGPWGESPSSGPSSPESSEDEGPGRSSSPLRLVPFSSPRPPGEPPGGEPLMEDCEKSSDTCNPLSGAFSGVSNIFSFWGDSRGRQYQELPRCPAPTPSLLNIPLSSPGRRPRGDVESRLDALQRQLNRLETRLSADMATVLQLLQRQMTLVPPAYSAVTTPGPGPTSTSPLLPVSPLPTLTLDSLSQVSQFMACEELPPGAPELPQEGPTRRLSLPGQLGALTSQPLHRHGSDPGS
Protocol: This study was performed by PhysioStim, France, a GLP compliant facility.
The effects of pemirolast on hERG currents in HEK-293 cells stably expressing the hERG potassium channel were studied using patch-clamp technique.

[4] = Later pharmacokinetic studies in healthy volunteers, multiple doses b.i.d. for three and a half days; assay type: in vivo, human; conditions: for Cmax: human, plasma, oral, read-out: Actual Cmax
Text: Later pharmacokinetic studies in healthy volunteers (7 to 8 in each group) have shown that actual Cmax values for various multiple doses (b.i.d. for three and a half days) are as follows: […]

[5] = tested on: airway hyperresponsiveness to mannitol challenge in asthma patients; experiment: Clinical trial: mannitol challenge test (PD15 for mannitol) in asthma patients; assay type: in vivo, human; conditions: for Mannitol dose tolerated (PD15) at the placebo visit; reduction in AHR/BHR: n=4, FIG. 2
Protocol: This study comprised male and female asthma patients (18 to 46 years of age) with a positive asthma test (as determined by a mannitol challenge test (vide infra) performed within 15 days prior to enrolment at the first screening visit, Visit 1).
It was a double-blind, randomized, placebo-controlled, cross-over trial assessing the efficacy of orally administered single doses of placebo and 40 mg and 400 mg of pemirolast (immediate release tablets containing pemirolast sodium hemihydrate, as well as microcrystalline cellulose, mannitol, copovidone fine, croscarmellose sodium, anhydrous colloidal silica and magnesium stearate) in patients challenged with mannitol inhalation as described below.
The patients were exposed to the different treatments at three separate hospital visits at least 2 (mean 6.8, median 6) days apart. The data reported in FIGS. 2 and 3 below represent the patients that received placebo treatment at the first visit (n=8) or placebo at the second visit (after 40 mg at the first visit (n=4) or after 400 mg at the first visit (n=4)).
All doses were administered 3 hours before initiation of the mannitol challenge test to ensure peak plasma concentrations of pemirolast when the mannitol challenge was performed (blood samples for analysing plasma concentrations of pemirolast were collected 3 hours after drug administration).
There were 5 visits during the trial: A screening visit (Visit 1, within 15 days before Visit 2), three visits for treatment with Investigational Medicinal Products (IMP; pemirolast 40 or 400 mg, or placebo) (Visit 2-4, spaced at least 2 days apart), and a final follow-up visit by telephone (Visit 5, at least 2, but less than 4 days after Visit 4 and within 30 days of Visit 2). […]

[6] = Clinical trial: plasma pemirolast concentration by LC-MS/MS; assay type: in vivo; conditions: human, 40 and 400 mg single oral doses, asthma patients
Protocol: All doses were administered 3 hours before initiation of the mannitol challenge test to ensure peak plasma concentrations of pemirolast when the mannitol challenge was performed (blood samples for analysing plasma concentrations of pemirolast were collected 3 hours after drug administration). All laboratory pharmacokinetic analyses were performed by Clinical Pharmacology, Karolinska University Hospital, Stockholm, Sweden. Briefly, the concentration of pemirolast in human plasma was determined by solid phase extraction and liquid chromatography followed by tandem mass spectrometric detection (LC-MS/MS). The analytical method, utilizing a 200 μL sample aliquot, has a calibration range of 4.00-4000 ng/mL, with a lower limit of quantification (LLOQ) set at 4.00 ng/mL.

asthma patients [7] = experiment: Clinical trial: FEV1 before and 3 hours after treatment; assay type: in vivo, human; conditions: 3 hours after an oral dose of 400 mg; 3.58±0.86 L before treatment; mean ±SD, n=22
[8] = tested on: 11β-PGF2α (mast cell biomarker prostaglandin D2 metabolite); experiment: Clinical trial: urinary excretion of PGD2 metabolite 11β-PGF2α (EIA); assay type: in vivo, human; conditions: patients treated at least 3 days before with 40 mg or 400 mg, 4+4 patients, FIG. 3
Protocol: A secondary endpoint in the study was to analyse changes in urinary excretion of a metabolite (11β-prostaglandin (PG) F2α) of the lung mast cell mediator/biomarker prostaglandin D2. 11β-PGF2α analysis was performed in unextracted urine samples using a validated enzyme immunoassays (EIA) kit from Cayman Chemical, Ann Arbor, Mich., USA (Item no 516521). […]

asthma patients [9] = experiment: Clinical trial: adverse events, vital signs and laboratory tests; assay type: in vivo, human; conditions: single oral doses of 40 mg and 400 mg
[10] = tested on: airway or bronchial hyperresponsiveness; conditions: 50 mg doses twice daily in humans (Kemp et al 1992); cited from earlier work
[11] = 10 mg pemirolast potassium (8.5 mg free acid) oral b.i.d.
[12] = 30 mg pemirolast potassium (25.5 mg free acid) oral b.i.d.
[13] = 50 mg pemirolast potassium (42.5 mg free acid) oral b.i.d.

Cc1cccn2c(=O)c(-c3nnn[nH]3)cnc12 [pemirolast potassium]
Cmax [1, 11]: 730 ng/mL | Cmax [1, 12]: 2040 ng/mL | Cmax [1, 13]: 3420 ng/mL | Cmax ([2]; female dogs (n = 3)): 150000 ng/mL | Cmax ([2]; male dogs (n = 3)): 168000 ng/mL | Safe chronic dose [3]: 75 mg/kg daily | Decrease of hERG tail current amplitude (hERG potassium channel; 2.7 μg/mL): 5.4% | Decrease of hERG tail current amplitude (hERG potassium channel; 8 μg/mL): 10.2% | Decrease of hERG tail current amplitude (hERG potassium channel; 26.6 μg/mL): 14.1% | Decrease of hERG tail current amplitude (hERG potassium channel; 79.9 μg/mL): 19.0%

Cc1cccn2c(=O)c(-c3nnn[nH]3)cnc12 [pemirolast]
Cmax, mean [1, 11]: 730 ng/mL | Cmax, mean [1, 12]: 2040 ng/mL | Cmax, mean [1, 13]: 3420 ng/mL | Predicted Cmax ([1]; predicted for 125 mg, linear extrapolation from 8.5 mg multiple dose): 10680 ng/mL | Predicted Cmax ([1]; predicted for 125 mg, linear extrapolation from 25.5 mg multiple dose): 9980 ng/mL | Predicted Cmax ([1]; predicted for 125 mg, linear extrapolation from 42.5 mg multiple dose): 10070 ng/mL | Predicted Cmax ([1]; predicted for 200 mg, linear extrapolation from 8.5 mg multiple dose): 17080 ng/mL | Predicted Cmax ([1]; predicted for 200 mg, linear extrapolation from 25.5 mg multiple dose): 15980 ng/mL | Predicted Cmax ([1]; predicted for 200 mg, linear extrapolation from 42.5 mg multiple dose): 16120 ng/mL | Predicted Cmax ([1]; predicted for 400 mg, linear extrapolation from 8.5 mg multiple dose): 34160 ng/mL | Predicted Cmax ([1]; predicted for 400 mg, linear extrapolation from 25.5 mg multiple dose): 31950 ng/mL | Predicted Cmax ([1]; predicted for 400 mg, linear extrapolation from 42.5 mg multiple dose): 32230 ng/mL | Safety and tolerability ([4]; 80, 200 and 320 mg b.i.d. for three and a half days): safe and well-tolerated | Cmax ([4]; 80 mg b.i.d. for three and a half days): 8840 ng/mL | Cmax ([4]; 200 mg b.i.d. for three and a half days): 32500 ng/mL | Cmax ([4]; 320 mg b.i.d. for three and a half days): 51000 ng/mL | Mannitol PD15 ([5]; 3 hour pre-treatment, single oral dose, asthma patients): increased | Mannitol dose tolerated (PD15) at the placebo visit; reduction in AHR/BHR ([5]; single 40 mg oral dose before the placebo treatment): not seen | Mannitol dose tolerated (PD15) at the placebo visit; reduction in AHR/BHR ([5]; single 400 mg oral dose at least 3 days before placebo/mannitol): tolerated a much higher dose of mannitol | half-life [6]: 4 to 7 h | FEV1 (asthma patients [7]): 3.55 ± 0.84 L | Urinary levels of the PGD2 biomarker (11β-PGF2α), 40 mg versus 400 mg [8]: did not differ | Adverse events, vital signs, physical examination, laboratory tests (asthma patients [9]): no serious adverse events | Effect on airway or bronchial hyperresponsiveness [10]: no effect whatsoever
